Molecular target: T1, CCXCKR2 receptor (Homo sapiens, UniProt P25106)
T1 construct: expressed in transfected cells; host or cells: MDA-MB-435S transfected with pcDNA3.1(+)-hRDC1 and/or MCF-7 (endogenous receptor)
Experiment: Displacement of 125I-labeled SDF-1 from the CCXCKR2 receptor on MCF-7 and/or CCXCKR2-transfected MDA-MB-435S cells (radioligand binding, filtration)
Settings: not given

T1 sequence (P25106 whole entry): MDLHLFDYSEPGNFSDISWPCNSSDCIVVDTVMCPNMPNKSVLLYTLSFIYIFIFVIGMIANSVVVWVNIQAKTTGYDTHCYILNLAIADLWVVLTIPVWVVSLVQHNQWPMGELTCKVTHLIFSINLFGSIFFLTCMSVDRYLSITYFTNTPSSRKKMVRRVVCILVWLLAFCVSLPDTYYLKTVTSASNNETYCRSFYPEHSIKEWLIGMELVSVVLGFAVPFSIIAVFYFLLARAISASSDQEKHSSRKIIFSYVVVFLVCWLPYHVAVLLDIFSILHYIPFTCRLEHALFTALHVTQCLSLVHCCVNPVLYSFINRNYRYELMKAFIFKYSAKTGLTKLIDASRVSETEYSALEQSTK

| SMILES | IC50 |
| --- | --- |
| Cc1ccc(C(=O)c2cn(CC3CCCCC3)c3ccccc3c2=O)cc1C [Example 39] | < 100 nM |

Same assay, conditions: 125I SDF-1, 3 hr at 4° C., MCF-7 and/or MDA-MB-435S cells; read-out: Activity (concentration displacing at least 50% of the SDF-1 from the CCXCKR2 receptor)

| IC50 | SMILES |
| --- | --- |
| 500 to 20000 nM | O=C(c1ccc(CN2CCOCC2)cc1)c1cn(Cc2cccc(Br)n2)c2ccccc2c1=O [Example 123] |
| 100 to 500 nM | COCCOc1ccc(C(=O)c2cn(Cc3cccc(Br)n3)c3ccccc3c2=O)cc1C [Example 127] |
| 500 to 20000 nM | O=C(c1ccc(O)nc1)c1cn(Cc2cccc(Br)n2)c2ccccc2c1=O [Example 210] |
| 500 to 20000 nM | Cc1cccc(Cn2cc(C(=O)c3cnccn3)c(=O)c3ccccc32)n1 [Example 63] |
| 500 to 20000 nM | O=C(c1cccc(C2OCCCO2)c1)c1cn(Cc2cccc(Br)n2)c2ccccc2c1=O [Example 135] |
| 500 to 20000 nM | Cc1ccc(C(=O)c2cn(Cc3cccnc3)c3cc4c(cc3c2=O)OCO4)cc1C [Example 2] |
| < 100 nM | COc1ccc(C(=O)c2cn(Cc3cccc(Br)n3)c3ccccc3c2=O)cc1OC [Example 140] |
| 100 to 500 nM | Cc1ccc(C(=O)c2cn(Cc3cccc(NS(C)(=O)=O)n3)c3ccccc3c2=O)cc1C [Example 60] |
| 500 to 20000 nM | Cc1ccc(C(=O)c2cn(Cc3ccccc3F)c3cc4c(cc3c2=O)OCCO4)cc1C [Example 7] |
| < 100 nM | Cc1ccc(C(=O)c2cn(Cc3ncccn3)c3ccccc3c2=O)cc1C [Example 56] |
| 500 to 20000 nM | O=C(c1ccc(C(F)(F)F)nc1)c1cn(Cc2cccc(Br)c2)c2ccccc2c1=O [Example 224] |
| < 100 nM | Cc1ccc(C(=O)c2cn(Cc3nnsc3Cl)c3ccccc3c2=O)cc1C [Example 28, 1-(5-Chloro-[1,2,3]thiadiazol-4-ylmethyl)-3-(3,4-dimethyl-benzoyl)-1H-quinolin-4-one] |
| 500 to 20000 nM | Cc1cc(C(=O)c2cn(Cc3cccc(C)n3)c3ccccc3c2=O)ccn1 [Example 25] |
| < 100 nM | Cc1cc(C)cc(C(=O)c2cn(Cc3cccc(Br)n3)c3ccccc3c2=O)c1 [Example 104] |
| 100 to 500 nM | Cc1cc(Cn2cc(C(=O)c3ccc(C)c(C)c3)c(=O)c3ccccc32)no1 [Example 30, 3-(3,4-Dimethyl-benzoyl)-1-(5-methyl-isoxazol-3-ylmethyl)-1H-quinolin-4-one] |
| < 100 nM | COc1ncc(C(=O)c2cn(Cc3cccc(Cl)c3)c3ccccc3c2=O)cc1C [Example 240] |
| 500 to 20000 nM | COc1ccc(C(=O)c2cn(Cc3cccc(Br)n3)c3cccnc3c2=O)cc1C [Example 201] |
| < 100 nM | Cc1ccc(C(=O)c2cn(Cc3cccc(Br)n3)c3cccnc3c2=O)cc1C [Example 105] |
| 100 to 500 nM | COc1ccc(C(=O)c2cn(Cc3cccc(Br)c3)c3ccccc3c2=O)cn1 [Example 239] |
| < 100 nM | COc1ccc(C(=O)c2cn(Cc3cccc(C)n3)c3ccccc3c2=O)cc1C [Example 156] |
| < 100 nM | COc1ccc(C(=O)c2cn(Cc3cccc(C(F)(F)F)n3)c3ccccc3c2=O)cc1C [Example 202] |
| < 100 nM | Cc1ccc(C(=O)c2cn(Cc3cccc(C4CC4)n3)c3ccccc3c2=O)cc1C [Example 74] |
| 100 to 500 nM | Cc1cccc(Cn2cc(C(=O)c3ccccc3)c(=O)c3ccccc32)c1 [Example 18] |
| 500 to 20000 nM | Cc1ccc(C(=O)c2cn(Cc3cccc(O)n3)c3ccccc3c2=O)cc1C [Example 213] |
| 500 to 20000 nM | Cc1ccc(C(=O)c2cn(Cc3cccc(C(=O)O)n3)c3ccccc3c2=O)cc1C [Example 83] |
| < 100 nM | Cc1ccc(C(=O)c2cn(Cc3cccc(N)n3)c3ccccc3c2=O)nc1C [Example 90] |

| IC50 | SMILES |
| --- | --- |
| 500 to 20000 nM | Cc1cccc(Cn2cc(C(=O)c3ccncc3)c(=O)c3ccccc32)c1 [Example 17] |
| < 100 nM | Cc1ccc(C(=O)c2cn(Cc3cccc(Br)n3)c3ccccc3c2=O)nc1C [Example 64] |
| < 100 nM | Cc1cccc(Cn2cc(C(=O)c3ccc4c(c3)OCCO4)c(=O)c3ccccc32)n1 [Example 157] |
| < 100 nM | CCc1ccc(C(=O)c2cn(Cc3cccc(C)n3)c3ccccc3c2=O)cn1 [Example 212] |
| 100 to 500 nM | Cc1ccc(C(=O)c2cn(Cc3ccccn3)c3cc4c(cc3c2=O)OCO4)cc1C [Example 1] |
| < 100 nM | Cc1ccc(C(=O)c2cn(Cc3cccc(C(F)(F)F)n3)c3ccccc3c2=O)cc1C [Example 66] |
| 100 to 500 nM | Cc1cccc(Cn2cc(C(=O)c3ccc(C)c(C)c3)c(=O)c3cnccc32)c1 [Example 47] |
| < 100 nM | O=C(c1ccc2c(n1)CCCC2)c1cn(Cc2cccc(Br)n2)c2ccccc2c1=O [Example 89] |
| 500 to 20000 nM | Cc1cccc(Cn2cc(C(=O)c3cc(C)on3)c(=O)c3ccccc32)n1 [Example 208] |
| 500 to 20000 nM | Cc1cc(C(=O)c2cn(C(C)c3cccc(Br)n3)c3ccccc3c2=O)cnc1C (stereo not drawn) [Example 84] |
| < 100 nM | Cc1ccc(C(=O)c2cn(Cc3cccc(C#N)n3)c3ccccc3c2=O)cc1C [Example 81] |
| < 100 nM | COc1ccc(C(=O)c2cn(Cc3cccc(Br)n3)c3ccccc3c2=O)c(C)c1 [Example 178] |
| < 100 nM | COc1ccc(C(=O)c2cn(Cc3cccc(C)n3)c3ncccc3c2=O)cc1 [Example 161] |
| < 100 nM | Cc1cccc(C(=O)c2cn(Cc3cccc(Br)n3)c3ccccc3c2=O)c1C [Example 103] |
| < 100 nM | O=C(c1ccc(Cl)c(F)c1)c1cn(Cc2cccc(Br)n2)c2ccccc2c1=O [Example 179] |
| < 100 nM | Cc1ccc(C(=O)c2cn(C(C)c3cccc(Br)n3)c3ccccc3c2=O)nc1C (stereo not drawn) [Example 76] |
| 100 to 500 nM | CNCc1ccc(C(=O)c2cn(Cc3cccc(Br)n3)c3ccccc3c2=O)cc1 [Example 153] |
| < 100 nM | Cc1ccc(C(=O)c2cn(Cc3cccc(Br)n3)c3ccccc3c2=O)c(C)c1 [Example 101] |
| < 100 nM | Cc1ccc2c(=O)c(C(=O)c3ccc4c(c3)OCCO4)cn(Cc3cccc(Br)n3)c2n1 [Example 142] |
| 500 to 20000 nM | Cc1cccc(Cn2cc(C(=O)c3ccc(C)c(C)c3)c(=O)c3cc4c(cc32)OCCO4)c1 [Example 5] |
| < 100 nM | COc1ccc(C(=O)c2cn(Cc3cccc(Br)n3)c3ccccc3c2=O)cn1 [Example 189] |
| 100 to 500 nM | Cc1ccc(C(=O)c2cn(Cc3cnn[nH]3)c3ccccc3c2=O)cc1C [Example 48] |
| 500 to 20000 nM | CNCc1cccc(Cn2cc(C(=O)c3ccc(C)c(C)c3)c(=O)c3ccccc32)n1 [Example 117] |
| < 100 nM | CSc1ccc(C(=O)c2cn(Cc3cccc(Br)n3)c3ccccc3c2=O)cc1 [Example 186] |
| < 100 nM | Cc1ccc(C(=O)c2cn(Cc3cscn3)c3ccccc3c2=O)cc1C [Example 31] |
| 500 to 20000 nM | O=C(c1cnccn1)c1cn(Cc2ccccc2F)c2ccccc2c1=O [Example 61] |

| IC50 | SMILES |
| --- | --- |
| 500 to 20000 nM | Cc1ccc(C(=O)c2cn(Cc3ccccc3F)c3ccc(C(F)(F)F)cc3c2=O)cc1C [Example 14] |
| 500 to 20000 nM | Cc1ccc(C(=O)c2cn(Cc3cccc(C(N)=O)n3)c3ccccc3c2=O)cc1C [Example 86] |
| 500 to 20000 nM | O=C(NC1CC1)c1ccccc1C(=O)c1cn(Cc2cccc(Br)n2)c2ccccc2c1=O [Example 170] |
| < 100 nM | COc1ccc(C(=O)c2cn(Cc3cccc(Br)n3)c3ccccc3c2=O)cc1C [Example 98] |
| < 100 nM | Cc1cccc(C(=O)c2cn(Cc3ccccc3F)c3ccccc3c2=O)c1 [Example 21] |
| 500 to 20000 nM | Cc1ccc(C(=O)c2cn(Cc3ccccc3F)c3cc4c(cc3c2=O)OC(F)(F)O4)cc1C [Example 19] |
| < 100 nM | Cc1ccc(C(=O)c2cn(Cc3cccc(Br)n3)c3ccccc3c2=O)cn1 [Example 220] |
| < 100 nM | Cc1ccc(C(=O)c2cn(Cc3cccc(Br)n3)c3cc(F)ccc3c2=O)cc1C [Example 59] |
| < 100 nM | COc1ccc(C(=O)c2cn(Cc3cccc(C(F)(F)F)n3)c3ncccc3c2=O)cc1C [Example 195] |
| < 100 nM | Cc1cc(C(=O)c2cn(Cc3ccccc3F)c3ccccc3c2=O)cnc1C [Example 40] |
| 100 to 500 nM | CCc1ccc(C(=O)c2cn(Cc3cccc(Cl)c3)c3ccccc3c2=O)cn1 [Example 244] |
| < 100 nM | O=C(c1ccc2c(c1)OCCO2)c1cn(Cc2cccc(Br)c2)c2ccccc2c1=O [Example 231] |
| 500 to 20000 nM | COc1ccc(C(=O)c2cn(Cc3cccc(C)n3)c3ccc(C)nc3c2=O)cc1C [Example 216] |
| < 100 nM | CCc1ccc(C(=O)c2cn(Cc3cccc(Br)n3)c3ccccc3c2=O)cc1 [Example 115] |
| < 100 nM | COc1ccc(C(=O)c2cn(Cc3cccc(C)n3)c3ccccc3c2=O)cc1F [Example 183] |
| < 100 nM | O=C(O)c1ccccc1C(=O)c1cn(Cc2cccc(Br)n2)c2ccccc2c1=O [Example 138] |
| 500 to 20000 nM | Cc1cccc(Cn2cc(C(=O)c3cnccn3)c(=O)c3ccccc32)c1 [Example 62] |
| < 100 nM | Cc1cccc(Cn2cc(C(=O)c3ccccc3Br)c(=O)c3ccccc32)n1 [Example 176] |
| < 100 nM | COc1cccc(Cn2cc(C(=O)c3ccc(C)c(C)c3)c(=O)c3ccccc32)n1 [Example 69] |
| < 100 nM | Cc1cccc(Cn2cc(C(=O)c3ccc(C(C)C)cc3)c(=O)c3cccnc32)n1 [Example 165] |
| < 100 nM | Cc1ccc(C(=O)c2cn(Cc3cccc(Br)c3)c3ccccc3c2=O)cn1 [Example 227] |
| < 100 nM | COc1ccc(C(=O)c2cn(Cc3cncc(C)n3)c3ccccc3c2=O)cc1F [Example 225] |
| < 100 nM | Cc1ccc2c(=O)c(C(=O)c3ccc(C)c(C)c3)cn(Cc3cccc(Br)n3)c2n1 [Example 106] |
| < 100 nM | Cc1cccc(Cn2cc(C(=O)c3cnc(C)c(C)c3)c(=O)c3cc(F)ccc32)c1 [Example 55] |
| 100 to 500 nM | Cc1cc(C(=O)c2cn(Cc3cccc(Br)n3)c3ccccc3c2=O)c[n+]([O-])c1C [Example 112] |
| 100 to 500 nM | C[S+]([O-])c1ccc(C(=O)c2cn(Cc3cccc(Br)n3)c3ccccc3c2=O)cc1 (stereo not drawn) [Example 190] |

| SMILES | IC50 |
| --- | --- |
| Cc1ccc(C(=O)c2cn(Cc3ccccc3C(F)(F)F)c3ccccc3c2=O)cc1C [Example 36] | 500 to 20000 nM |
| O=C(c1ccc(Cl)nc1)c1cn(Cc2cccc(Cl)c2)c2ccccc2c1=O [Example 236] | 500 to 20000 nM |

From patent publication US7557213B2, “Substituted quinolones and methods of use” (ChemoCentryx, Inc., priority 2005, dated 2009)
